The record followed here is US20050255493A1, “Molecular targeting of the IGF-1 receptor” (priority 2002, published 2005).

The test system of one data set is IGF-I signaling to Akt. Nature of the data set: IGF signalling: phosphorylation of IGF1R β-subunit and Akt after IGF-I in transfected MDA-MB-231 cells. The format is cell-based, human. As to conditions: MDA-MB-231, 100 nM duplexes, 50 nM IGF-1 for 30 min. The method, then:
(§1) IGF1R expression was assessed by immunoblotting as previously described (Macaulay et al 2001). After washing in ice-cold PBS, cells were lysed in 50 mM Hepes pH 7.5, 100 mM NaCl, 10 mM EDTA, 1% Triton-X-100, 4 mM sodium pyrophosphate, 2 mM sodium orthovanadate, 10 mM sodium fluoride, 1 mM PMSF, 2 μg/ml each leupeptin and aprotinin. Lysates were centrifuged for 15 minutes at 14,000 g, the protein concentration of supernatants was measured using BCA assay reagent (Pierce), and equivalent amounts of protein were separated on 7.5% SDS-PAGE gels and transferred to nitrocellulose. Target protein levels were assessed using antibodies to the β-subunit of the IGF1R or IR (Santa Cruz), phospho-Ser 473 Akt or total Akt (Cell Signalling, New England Biolabs) or β-tubulin (Sigma). Activated IGF1R was detected by immunoprecipitation for phosphotyrosine (P-Tyr-100, Cell Signaling Technology). Primary antibodies were detected with HRP-conjugated secondary antibodies (Dako), and ECL Plus (Amersham Pharmacia).
MDA-MB-231 cells transfected with 100 nM RNA duplexes were serum-starved overnight and treated with 50 nM IGF-1 or diluent for 30 min. The cells were lysed and lysates were analysed by immunoblotting for IGF1R, phospho-Ser473-Akt and total Akt, and by phosphotyrosine immunoprecipitation and IGF1R immunoblotting to detect phosphorylated IGF1R β-subunit (see FIG. 7).

Data set [1] deals with IGF1R. Nature of the data set: IGF1R levels by immunoblotting in human tumour cell lines transfected with RNAi duplexes. Type of data set: cell-based. The note with it: for IGF1R level as % of levels in cells transfected with inverted control duplex: 10 nM duplex, 48 hr. The method, then: (§2) The human and murine cell lines used in this study were cultured in RPMI 1640 plus 10% FCS at 37° C. in a humidified atmosphere of 5% CO2. The cultures were negative when tested for Mycoplasma infection. Cultures were passaged the day before transfection to achieve 30-50% confluence the following day. Initial transfections of ASOs used 1-2.5 μg/ml Cytofectin (Glen Research, Sterling, Va.), according to the manufacturer's instructions. Latterly Oligofectamine (Life Sciences) has been used for all ASO and RNAi transfections. The method was as described (see manufacturer's instructions and www.dharmacon.com) with minor modifications. For transfection of monolayers seeded in 6 well plates, 5 μl phosphorothioate oligonucleotide or RNA duplex at 100× final concentration were mixed with 2501 serum-free Optimem (Gibco-BRL). In a separate tube 2 μl Oligofectamine was mixed with 68 μl Optimem. After 10 min incubation at room temperature the contents of the two tubes were mixed and incubated for a further 25 min at room temperature. Monolayers were washed with 1-2 ml Optimem. To the cells were added 175 μl Optimem followed by the 325 μl complexes. Volumes were scaled up by factors of 2.22 or 6.05 for transfection in 60 mm or 100 mm dishes respectively. Cultures were incubated at 37° C. for 4 hr, and then 50 μl FCS and 3.5 ml RPMI plus 5% FCS were added to each well. After 48 hr incubation effects on IGF1R and IR expression were determined by immunoblotting. Some transfected cultures were serum-starved overnight, divided into two aliquots and treated with 10 nM Long R3-IGF-I (GroPep, Adelaide) or diluent for 30 min at 37° C. prior to lysis.
as §1, with “Pharmacia). […]” for “Pharmacia).”
Tumour cells were transfected with 10 nM duplexes and IGF1R levels were measured after 48 hr. After correction for loading differences IGF1R levels in cells transfected with RNAi were expressed as % of levels in cells transfected with equivalent inverted control duplex.
In general terms: A western blot detects proteins with antibodies after separation by electrophoresis.

The test system of data set [2] is IGF1R. The data set is described as follows: IGF1R level by immunoblotting in transfected MDA-231 cells. The format is cell-based, human. The method, then:
as §2, §1
The ASOs and RNAi duplexes were transfected into MDA-231 cells (human ER negative breast cancer) using Cytofectin or Oligofectamine, as described above. After 48 hr the cells were lysed, and IGF1R and IR levels were measured by immunoblotting. The intensity of the autoradiographic bands was quantified by densitometry, and IGF1R (or IR) levels were corrected for loading differences. The specific IGF1R or IR results are presented as % IGF1R (or IR) level of that in cells transfected with the same concentration of an appropriate control. This was a scrambled control oligonucleotide for ASOs, and an inverted RNA duplex for RNAi.

The subject of the next data set is B16 melanoma cells. The data set is described as follows: Growth in vivo of B16 melanoma cells transfected with RNA duplexes. The note with it: B16 cells transfected with 200 nM duplex on three consecutive days, flanks of C57BL mice. The procedure:
FIG. 8 illustrates growth in vivo in C57BL mice of B16 melanoma cells transfected with RNA duplexes. B16 melanoma cells were transfected with 200 nM duplexes (RNA22 is R2, Inv22 is Inv2) or oligofectamine alone (OF) for three consecutive days. On the 4th day cells were injected into the flanks of C57BL mice, using 2.5×10^5 cells/mouse, using groups of 5 mice. Tumours were measured in 2 dimensions every 2-3 days. Tumour volumes were calculated as n(a×b^2)/6 where a is the larger and b the smaller dimension.
B16 cells were transfected with 200 nM RNA duplexes (RNA22=R2, 22Inv=Inv2) or oligofectamine alone (OF) for three consecutive days. On the 4th day cells were injected into the flanks of C57BL mice, using 2.5×10^5 cells/mouse, using groups of 5 mice. Tumours were measured in 2 dimensions every 2-3 days. Tumour volumes were calculated as n(a×b^2)/6 where a is the larger and b the smaller dimension.

Data set [3] concerns IGF1R. Nature of the data set: IGF1R levels by immunoblotting in B16 murine melanoma cells transfected with RNAi duplexes. The note with it: 10 nM duplex, 48 hr. The format is cell-based. The procedure: The human and murine cell lines used in this study were cultured in RPMI 1640 plus 10% FCS at 37° C. in a humidified atmosphere of 5% CO2. The cultures were negative when tested for Mycoplasma infection. Cultures were passaged the day before transfection to achieve 30-50% confluence the following day. Initial transfections of ASOs used 1-2.5 μg/ml Cytofectin (Glen Research, Sterling, Va.), according to the manufacturer's instructions. Latterly Oligofectamine (Life Sciences) has been used for all ASO and RNAi transfections. The method was as described (see manufacturer's instructions and www.dharmacon.com) with minor modifications. […] After 48 hr incubation effects on IGF1R and IR expression were determined by immunoblotting. […]
IGF1R expression was assessed by immunoblotting as previously described (Macaulay et al 2001). […] Lysates were centrifuged for 15 minutes at 14,000 g, the protein concentration of supernatants was measured using BCA assay reagent (Pierce), and equivalent amounts of protein were separated on 7.5% SDS-PAGE gels and transferred to nitrocellulose. Target protein levels were assessed using antibodies to the β-subunit of the IGF1R or IR (Santa Cruz), phospho-Ser 473 Akt or total Akt (Cell Signalling, New England Biolabs) or β-tubulin (Sigma). Activated IGF1R was detected by immunoprecipitation for phosphotyrosine (P-Tyr-100, Cell Signaling Technology). […]

For data set [4], the system named is Human EJ28 invasive bladder carcinoma cells. The data set is described as follows: Survival and mitomycin-C sensitivity of EJ28 invasive bladder carcinoma cells. Type of data set: cell-based. The note with it: human bladder cancer cells. The procedure:
FIG. 20 illustrates that IGF1R gene silencing inhibits survival and enhances chemosensitivity of invasive bladder cancer. Human EJ28 invasive bladder carcinoma cells were transfected with 200 nM TSS or control duplex. After 48 hr the cells were disaggregated and re-seeded. To measure survival, 2000 cells were seeded in 10 cm dishes. Survival in TSS-transfected cells was only 0.2% of that in control-treated cultures, p<0.001). For chemosensitivity testing, cells were re-seeded into 96-well plates. The following day cultures were treated with mitomycin-C at the indicated concentrations for 24 hours, after which the medium was changed. After a further 4 days, growth was measured by calorimetric assay (MTS assay).

The subject of a further data set is DU145 and PC3 cells. The data set is described as follows: Radio- and chemosensitivity of prostate cancer cells after IGF1R gene silencing (clonogenic, change in IC50). Type of data set: cell-based, human. The note with it: 200 nM duplex (FIG. 19). The procedure: FIG. 19 illustrates that IGF1R gene silencing enhances chemosensitivity of androgen-resistant prostate cancer. PC3 cells were transfected with 200 nM TSS (red line) or scrambled sequence control duplex (green). After 48 hr the cells were disaggregated and re-seeded in 10 cm dishes (4000 cells/dish). The following day the cultures were treated with mitoxantrone at the indicated concentrations for 24 hours, after which the medium was changed and cells were allowed to survive to form colonies (>50 cells). Dotted lines mark IC501 dose required to inhibit survival to 50% untreated level.
Furthermore, IGF1R gene silencing appeared to enhance prostate cancer radio- and chemo-sensitivity (FIG. 19). The alteration in sensitivity was calculated as change in IC50, the concentration of drug/irradiation required to reduce the colony count to 50% of that in untreated cultures, as follows: [formula]

The test system of data set [5] is Human prostate cancer cells. Nature of the data set: Clonogenic survival of human prostate cancer cells transfected with siRNA TSS. Type of data set: cell-based. As to conditions: all three prostate cancer cell lines (DU145, PC3, LNCaP), 200 nM. The procedure:
FIG. 18 illustrates how IGF1R gene silencing inhibits survival of prostate cancer cells. Human prostate cancer cells were transfected with 200 nM TSS or control duplex. After 48 hr the cells were disaggregated and re-seeded in 10 cm dishes (2000 cells/dish). After 1-3 weeks incubation (depending on the cell line), visible colonies were stained and counted. Bars show mean±sem of triplicate dishes. **p<0.01, ***p<0.001 for comparison of survival in cultures treated with TSS versus control duplex.

The subject of data set [6] is IGF1R. Nature of the data set: IGF1R Western blot in prostate cancer cells transfected with siRNA TSS. The format is cell-based, human. The note with it: for IGF1R level, % of levels in cells treated with control duplex: 48 hours after transfection. The method, then:
Prostate cancer cells were transfected with 200 nM siRNA TSS homologous to nt 166-186 of the IGF1R gene or inverted sequence control.
as §2, §1

As for “R2: RNAi duplex GCCGAUGUGUGAGAAGACCTT / TTCGGCUACACACUCUUCUGG, SEQ ID NO:23 (sense GCCGAUGUGUGAGAAGACCNN; chemistry not fully specified; one strand is listed 3' to 5')”, in the data set with IGF-I signaling to Akt, the “IGF-I signaling to Akt / IGF-1-induced phosphorylation” value is reported as “could not detect IGF-1-induced phosphorylation of the IGF1R β-subunit or of Akt”. The “IGF1R level as % of levels in cells transfected with inverted control duplex” value with IGF1R [1] (A549 human non-small cell lung) was 22 ± 2%; in the data set on IGF1R [1] (DU145 human prostate cancer), 34 ± 13%; with IGF1R [1] (ME human melanoma) it was 53 ± 3%; with IGF1R [3], 45 ± 4%. Further, the “Inhibition of IGF1R expression on immunoblot” value in the data set on IGF1R [1] (ME melanoma cells, 10-200 nM) is recorded as “almost complete inhibition of IGF1R expression”; in the data set on IGF1R [2] (MDA-231 breast cancer cells, 10-200 nM) it was “almost complete inhibition of IGF1R expression”. In addition, in the data set on B16 melanoma cells, the “Tumour growth in vivo compared with inverted control RNA duplex” value is “reduced growth rate in vivo”.

Take “siRNA TSS: 21mer duplex homologous to nucleotides 166-186 of the IGF1R transcript, CGACUAUCAGCAGCUGAAGTT / TTGCUGAUAGUCGUCGACUUC, SEQ ID NO:37 (CGACUAUCAGCAGCUGAAGNN; second strand not cited, chemistry not fully specified)”: the “Clonogenic survival” value in data set [4] is on record as “profound inhibition of clonogenic survival”. In addition, the “Sensitivity to mitomycin-C” value in data set [4] (MTS assay) was “enhancement of sensitivity to mitomycin-C”. The “Change in mitoxantrone IC50” value in the data set with DU145 and PC3 cells is −2 fold. In addition, the “IGF1R gene silencing” value in the data set on IGF1R [2] (MDA-MB-231 human breast carcinoma cells) was “induce IGF1R gene silencing”. In addition, the “Inhibition of clonogenic survival” value in data set [5] is “significant inhibition”. Further, the “IGF1R level, % of levels in cells treated with control duplex” value in the data set on IGF1R [6] (DU145, 200 nM) amounted to 18%; with IGF1R [6] (LNCaP, 200 nM) it was 17%; in the data set on IGF1R [6] (PC3, 200 nM) it was 22%. In the data set on IGF1R [6] (all three prostate cancer cell lines (DU145, PC3, LNCaP)), the “Inhibition of IGF1R expression” value was “significant inhibition”.
